From patent US20250215039A1, “NUCLEOSIDES FOR TREATING CANCER” (PRIMEFOUR THERAPEUTICS, INC., priority 2022, published 2025)
Read-outs that look alike come from different tables or passages of the source.

Experiments:
[1] = target: human cytidine deaminase (CDA) (Homo sapiens, UniProt P32320); test: Metabolism by human cytidine deaminase (CDA), substrate absorbance at 290 nm; conditions: 12 nM CDA, 50 and 200 uM substrate, 37° C., pH 7.5; figure legends FIG. 4-9
Description: Transfer 7.2 μl of each of the substrate DMSO stock in step 2 into a 500 μl 96-Well V-bottom Microplate, clear SBS footprint, cat #P-96-450V-C
Add 352.8 μl assay buffer to the wells
For deaminated product compounds mix 4 μl product with 196 μl assay buffer
This was incubated at 37° C. for 1 h. 200 μl of this mixture was transferred into the assay plate to serve as the product control.
Product+buffer: mix 80 ul of the 2.5× intermediate product stocks (from step 3) with 120 ul assay buffer into product control (no enzyme) wells
Incubate the plate alongside the 20 nM CDA enzyme intermediate stock at 37° C. to temperature equilibrate reagents
Add 120 μl of the 20 nM enzyme mix into the Substrate+CDA wells and start reading at 290 nm every 30 s for about 60 min
50 and 200 uM substrate and product
In 100 mM Tris, pH 7.5, 100 mM KCl, 0.8% carryover DMSO
5 min incubation at 37° C.
Absorbance at 290 nm every 30 s at 37° C. for 1 h using FlexStation 3
Convert A290 to concentration of substrate remaining at time t after enzyme addition:
[formula] • where: • St=absorbance reading of: substrate+CDA wells at time t • So=Average absorbance reading of: substrate+buffer wells • Po=Average absorbance reading of: product+buffer wells • [S]t=initial substrate concentration • Use GraphPad to plot [substrate] against time to calculate initial velocity or slope (μMs^−1) i.e. the linear range of each curve • Express rate in s^−1 by dividing initial velocity by the total enzyme concentration.
Plot rate against [substrate] and fit data to standard Michaelis Menten equation to obtain kcat and KM parameters.

cancer cell lines = test: Cancer cell proliferation activity (CellTiterGlo, 72 h); format: cell-based; conditions: for IC50: 72 h, read-out: IC50
In short: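 Readout is CellTiterGlo luminescence after 72 h compound exposure (0.1% DMSO final), started one day post-seeding, at 37 °C.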

human cytidine deaminase (CDA), sequence (P32320 whole entry): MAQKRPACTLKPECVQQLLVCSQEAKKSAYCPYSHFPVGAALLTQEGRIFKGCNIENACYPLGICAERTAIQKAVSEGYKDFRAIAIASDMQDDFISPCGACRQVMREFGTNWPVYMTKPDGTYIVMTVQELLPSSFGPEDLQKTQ

C[C@]1(CO)O[C@@H](n2cc(F)c(N)nc2=O)C[C@@H]1O [Cpd. No. 4, 4-amino-5-fluoro-1-((2R,4S,5R)-4-hydroxy-5-(hydroxymethyl)-5-methyltetrahydrofuran-2-yl)pyrimidin-2(1H)-one]
metabolism (deamination) by human CDA (line graph) [1]: more stable than cytidine and gemcitabine | IC50 (cancer cell lines; 5637 cell line (bladder)): 30 nM | IC50 (cancer cell lines; CLS439 cell line (bladder)): 17600 nM | IC50 (cancer cell lines; HS729 cell line (muscle)): 1410 nM | IC50 (cancer cell lines; JAR cell line (placenta)): > 50000 nM | IC50 (cancer cell lines; U20S cell line, bone): > 50000 nM | IC50 (cancer cell lines; Homo sapiens, 22Rv1, 72 h, 22RV1 cell line (prostate)): 400 nM | IC50 (cancer cell lines; Homo sapiens, 786-0, 72 h, 786O cell line (kidney)): > 50000 nM | IC50 (cancer cell lines; Homo sapiens, A204, 72 h, A204 cell line (muscle)): 140 nM | IC50 (cancer cell lines; Homo sapiens, A549, 72 h, A549 cell line, lung): 240 nM | IC50 (cancer cell lines; Homo sapiens, A673, 72 h, A673 cell line (bone)): 510 nM | IC50 (cancer cell lines; Homo sapiens, A2780, 72 h, A2780 cell line (ovary)): 680 nM | IC50 (cancer cell lines; Homo sapiens, A-375, 72 h, A375 cell line (skin)): 730 nM | IC50 (cancer cell lines; Homo sapiens, A-431, 72 h, A431 cell line (skin)): 40 nM | IC50 (cancer cell lines; Homo sapiens, ACHN, ACHN cell line (kidney)): 50 nM | IC50 (cancer cell lines; Homo sapiens, ASPC1, 72 h, ASPC1 cell line (pancreas)): 10 nM | IC50 (cancer cell lines; Homo sapiens, BT-20, 72 h, BT20 cell line (breast)): > 50000 nM | IC50 (cancer cell lines; Homo sapiens, BXPC-3, 72 h, BXPC3 cell line (pancreas)): 10 nM | IC50 (cancer cell lines; Homo sapiens, C-33-A, C33A cell line, endometrial): 130 nM | IC50 (cancer cell lines; Homo sapiens, CAKI-1, 72 h, CAKI1 cell line (kidney)): 400 nM | IC50 (cancer cell lines; Homo sapiens, COLO 205, 72 h, COLO205 cell line (colon)): 60 nM | IC50 (cancer cell lines; Homo sapiens, COLO-678, 72 h, COLO678 cell line (colon)): > 50000 nM | IC50 (cancer cell lines; Homo sapiens, Ca-Ski, CASKI cell line, endometrial): 6170 nM | IC50 (cancer cell lines; Homo sapiens, Caco-2, 72 h, CACO2 cell line (colon)): > 50000 nM | IC50 (cancer cell lines; Homo sapiens, Calu-6, 72 h, CALU6 cell line (lung)): 250 nM | IC50 (cancer cell lines; Homo sapiens, DLD-1, 72 h, DLD1 cell line (colon)): 3660 nM | IC50 (cancer cell lines; Homo sapiens, DU-145, 72 h, DU145 cell line (prostate)): 1340 nM | IC50 (cancer cell lines; Homo sapiens, EFO-21, 72 h, EFO21 cell line (ovary)): 3620 nM | IC50 (cancer cell lines; Homo sapiens, EJ-28, 72 h, EJ28 cell line (bladder)): 190 nM | IC50 (cancer cell lines; Homo sapiens, Granta-519, 72 h, GRANTA-519 cell line (hematological)): 30 nM | IC50 (cancer cell lines; Homo sapiens, HCT-15, 72 h, HCT15 cell line (colon)): 1580 nM | IC50 (cancer cell lines; Homo sapiens, HCT-116, 72 h, HCT116 cell line (colon)): 1180 nM | IC50 (cancer cell lines; Homo sapiens, HEK293, 72 h, HEK293 cell line (kidney)): > 50000 nM | IC50 (cancer cell lines; Homo sapiens, HL-60, 72 h, HL-60 cell line (hematological)): 810 nM | IC50 (cancer cell lines; Homo sapiens, HT-29, 72 h, HT29 cell line (colon)): 160 nM | IC50 (cancer cell lines; Homo sapiens, HT-1080, 72 h, HT1080 cell line (connective tissue)): 190 nM | IC50 (cancer cell lines; Homo sapiens, HeLa, HELA cell line, endometrial): > 50000 nM | IC50 (cancer cell lines; Homo sapiens, HepG2, 72 h, HEPG2 cell line (liver)): 540 nM | IC50 (cancer cell lines; Homo sapiens, Hs-578T, HS578T cell line, breast): > 50000 nM | IC50 (cancer cell lines; Homo sapiens, IGROV-1, 72 h, IGROV1 cell line (ovary)): 1650 nM | IC50 (cancer cell lines; Homo sapiens, IMR-90, 72 h, IMR90 cell line, lung): > 50000 nM | IC50 (cancer cell lines; Homo sapiens, J82, 72 h, J82 cell line (bladder)): 1080 nM | IC50 (cancer cell lines; Homo sapiens, JEG-3, 72 h, JEG3 cell line (placenta)): 100 nM | IC50 (cancer cell lines; Homo sapiens, JIMT-1, 72 h, JIMT1 cell line (breast)): 890 nM | IC50 (cancer cell lines; Homo sapiens, K562, 72 h, K-562 cell line (hematological)): > 50000 nM | IC50 (cancer cell lines; Homo sapiens, Kasumi 1, 72 h, KASUMI-1 cell line (hematological)): 400 nM | IC50 (cancer cell lines; Homo sapiens, L-363, 72 h, L-363 cell line (hematological)): > 50000 nM | IC50 (cancer cell lines; Homo sapiens, LoVo, LOVO cell line (colon)): 30 nM | IC50 (cancer cell lines; Homo sapiens, MCF7, 72 h, MCF7 cell line (breast)): 1760 nM | IC50 (cancer cell lines; Homo sapiens, MDA-MB-231, 72 h, MDAMB231 cell line (breast)): 370 nM | IC50 (cancer cell lines; Homo sapiens, MDA-MB-435, 72 h, MDAMB435 cell line (skin)): 2520 nM | IC50 (cancer cell lines; Homo sapiens, MDA-MB-436, 72 h, MDAMB436 cell line (breast)): 140 nM | IC50 (cancer cell lines; Homo sapiens, MDA-MB-468, 72 h, MDAMB468 cell line (breast)): 770 nM | IC50 (cancer cell lines; Homo sapiens, MG-63, 72 h, MG63 cell line (bone)): 680 nM | IC50 (cancer cell lines; Homo sapiens, MHH-ES-1, 72 h, MHHES1 cell line (bone)): 1930 nM | IC50 (cancer cell lines; Homo sapiens, MIA PaCa-2, 72 h, MIAPACA2 cell line (pancreas)): > 50000 nM | IC50 (cancer cell lines; Homo sapiens, MINO, MINO cell line (hematological)): 10 nM | IC50 (cancer cell lines; Homo sapiens, MV4-11, 72 h, MV4-11 cell line (hematological)): 140 nM | IC50 (cancer cell lines; Homo sapiens, NCI-H23, 72 h, NCI-H23 cell line (lung)): 980 nM | IC50 (cancer cell lines; Homo sapiens, NCI-H82, 72 h, NCIH82 cell line (lung)): 390 nM | IC50 (cancer cell lines; Homo sapiens, NCI-H292, 72 h, NCIH292 cell line (lung)): > 50000 nM | IC50 (cancer cell lines; Homo sapiens, NCI-H460, 72 h, NCIH460 cell line (lung)): 200 nM | IC50 (cancer cell lines; Homo sapiens, OVCAR-3, 72 h, OVCAR3 cell line (ovary)): 3090 nM | IC50 (cancer cell lines; Homo sapiens, OVCAR-4, 72 h, OVCAR4 cell line (ovary)): > 50000 nM | IC50 (cancer cell lines; Homo sapiens, PANC-1, 72 h, PANC1 cell line (pancreas)): 1620 nM | IC50 (cancer cell lines; Homo sapiens, PC-3, 72 h, PC3 cell line (prostate)): 2600 nM | IC50 (cancer cell lines; Homo sapiens, PLC-PRF-5, 72 h, PLCPRF5 cell line (liver)): > 50000 nM | IC50 (cancer cell lines; Homo sapiens, Panc1005, 72 h, PANC1005 cell line (pancreas)): > 50000 nM | IC50 (cancer cell lines; Homo sapiens, RD, RD cell line (muscle)): 420 nM | IC50 (cancer cell lines; Homo sapiens, Ramos, RAMOS cell line (hematological)): 160 nM | IC50 (cancer cell lines; Homo sapiens, SAOS-2, 72 h, SAOS2 cell line (bone)): 90 nM | IC50 (cancer cell lines; Homo sapiens, SF-268, 72 h, SF268 cell line (brain)): 220 nM | IC50 (cancer cell lines; Homo sapiens, SF-295, 72 h, SF295 cell line (brain)): 3900 nM | IC50 (cancer cell lines; Homo sapiens, SK-BR-3, 72 h, SKBR3 cell line (breast)): 30 nM | IC50 (cancer cell lines; Homo sapiens, SK-HEP1, 72 h, SKHEP1 cell line (liver)): 770 nM | IC50 (cancer cell lines; Homo sapiens, SK-LMS-1, 72 h, SKLMS1 cell line (uterus)): 1150 nM | IC50 (cancer cell lines; Homo sapiens, SK-MEL-5, 72 h, SKMEL5 cell line, skin): > 50000 nM | IC50 (cancer cell lines; Homo sapiens, SK-MEL-28, 72 h, SKMEL28 cell line (skin)): 2900 nM | IC50 (cancer cell lines; Homo sapiens, SK-N-AS, SKNAS cell line (brain)): > 50000 nM | IC50 (cancer cell lines; Homo sapiens, SK-N-SH, SKNSH cell line (brain)): > 50000 nM | IC50 (cancer cell lines; Homo sapiens, SK-OV-3, 72 h, SKOV3 cell line (ovary)): 410 nM | IC50 (cancer cell lines; Homo sapiens, SNB-75, 72 h, SNB75 cell line (brain)): 2820 nM | IC50 (cancer cell lines; Homo sapiens, SU-DHL10, 72 h, SU-DHL-10 cell line (hematological)): 330 nM | IC50 (cancer cell lines; Homo sapiens, SU-DHL-6, 72 h, SU-DHL-6 cell line (hematological)): 450 nM | IC50 (cancer cell lines; Homo sapiens, SW-620, 72 h, SW620 cell line (colon)): 240 nM | IC50 (cancer cell lines; Homo sapiens, T-24, 72 h, T24 cell line (bladder)): 400 nM | IC50 (cancer cell lines; Homo sapiens, TE-671, 72 h, TE671 cell line (muscle)): 170 nM | IC50 (cancer cell lines; Homo sapiens, THP-1, 72 h, THP-1 cell line (hematological)): 2140 nM | IC50 (cancer cell lines; Homo sapiens, U-87 MG, U87MG cell line (brain)): 1870 nM | IC50 (cancer cell lines; Homo sapiens, UMUC3, 72 h, UMUC3 cell line (bladder)): 1340 nM | IC50 (cancer cell lines; Homo sapiens, UO-31, 72 h, UO31 cell line (kidney)): > 50000 nM | IC50 (cancer cell lines; Homo sapiens, WSU-NHL, WSU-NHL cell line (hematological)): 380 nM | IC50 (cancer cell lines; MT-3, 72 h, MT3 cell line (breast)): 60 nM | IC50 (cancer cell lines; NCI-H358M, NCIH358M cell line (lung)): 70 nM | IC50 (cancer cell lines; PBMC, PBMC (hematological)): 700 nM | IC50 (cancer cell lines; RD-ES, RDES cell line (bone)): 6010 nM | cytotoxicity against a panel of cell lines (waterfall plot) (cancer cell lines; panel of cancer and non-cancer cell lines, figure legends FIG. 1-3): selectively cytotoxic in cancer cell lines with high DDR activity
